Two compounds from US20210346259A1, “Oral Care Compositions Comprising Dicarboxylic Acid” (The Procter & Gamble Company, priority 2020, published 2021) can be followed below.

Series [1] can be described thus: Slurry pH of enamel softening treatments. Type of series: physicochemical. As to conditions: treatment as used in enamel softening, Study 1. From the text: The pH of the oral care compositions as described herein can be from about 4 to about 7, from about 4 to about 6, from about 4.5 to about 6.5, or from about 4.5 to about 5.5. The pH of a mouthrinse solution can be determined as the pH of the neat solution. The pH of a dentifrice composition can be determined as a slurry pH, which is the pH of a mixture of the dentifrice composition and water, such as a 1:4, 1:3, or 1:2 mixture of the dentifrice composition and water.

For series [2] the following is noted: human, 1 %, pH 2.19.
Method: The enamel softening method is used to determine the potential of oral care compositions to damage (or not to damage) dental enamel with repeated exposure.
A core of sound human enamel with a diameter of 3-4 mm was extracted from whole human teeth. The cores were mounted in dental acrylic and the surfaces were ground using 600 grit paper. Increasingly fine lapping papers were then used to polish the surface to a 1μ polish. Samples were sonicated in deionized water for 30 min. Enamel specimens were then rinsed with deionized water and wiped to remove any residual polish. Each enamel specimen was inspected and samples with large cracks or uneven calcification were discarded. […]
The artificial saliva solution of TABLE 6 was prepared on the day before the experiment. Also on the day before the experiment, the Vickers hardness of each enamel specimen was measured using a hardness indenter at three separate locations spread across the enamel surface. A 50 g load was applied for 10 seconds, and the diagonal lengths of the resulting indents were measured using a 20× magnification objective. […]
On the day following the cycling experiment, the post-cycling hardness was obtained for each specimen using a similar procedure to that described for the pre-cycling hardness measurements. […] The average change in specimen hardness with respect to treatment and its standard deviation were then determined. […]
Series [3] can be described thus: Powder Stain Removal Model (PSRM), tea stain. As to conditions: pH 7.
Method: A tea solution was prepared using 8 regular teabags (Lipton Black Tea) in 400 mL boiling water and steeping for 5 min. After letting the tea cool to 50° C. it was filtered through a Nalgene sterile filter (Thermo Scientific Nalgene Rapid flow 75 mm Filter Unit, 0.2SCFA). 10 g Hydroxyapatite Powder (HAP, Bio-Gel HTP-Gel Catalog #130-0421, Bio-Rad Laboratories Hercules, Calif.) was added and the mixture was stirred for 5 min, distributed into 12 50-mL centrifuge tubes and centrifuged for 15 min at 14,000 rpm (Lynx 6000, Thermo Fischer with Lynx F14-14X50CY rotor). Supernatant was decanted, the remaining stained HAP-powder was washed twice with water by adding 25 ml of water, vortexing, centrifuging at 14,000 rpm for 15 mins, and decanting liquid. Centrifuge tubes were placed in a convection oven overnight at 60° C. to dry stained HAP. Once dried, stained HAP was pooled and ground to a fine powder with pestle and mortar and stored in a dry dark place at room temperature.
HAP powders were treated with the treatment solutions to investigate their stain removal potential. Treatment (20 mL of a 1:4 dilution of treatment solutions above) was added to stained HAP powder (200 mg) in a 50 mL centrifuge, vortexed for 1 min, then centrifuged at 14,000 rpm for 15 min. Supernatant was decanted and the pellet was washed twice by adding 25 mL of water, vortexing, centrifuging at 14,000 rpm for 15 mins, and decanting. […]
The nature of series [4]: Powder Stain Removal Model (PSRM), tea stain + FeCl3. As to conditions: pH 7. From the text: The PSRM is a screening technique where hydroxyapatite powder (HAP) is used as a substrate for stain accumulation (see Baig A A; Kozak K M; Cox E R et al; J Clin Dent 2002, 13:19 24). The purpose of this technique was to illustrate and quantify the stain removal properties of chemical agents used in the oral care compositions disclosed herein with respect to pH. Hydroxyapatite powder provides a large surface area to which tea chromogens adsorbed. In addition to the published PSRM a modification of the model was used where tea stain was used in conjunction with Iron Trichloride (FeCl3) to simulate stains that are more resistant to removal. Stains found in the oral cavity commonly contain Fe(III) (Tantbirojn D, Douglas W H et al Eur J Oral Sci 1998; 106,971-976). […] The magnitude of stain removal was quantified by image analysis. […] VWR BDH9234) was added under stirring. Then HAP-powder was added, powder was centrifuged, washed and dried to yield a deeply colored powder. Treatment solutions were prepared for oxalate and pyrophosphate anions. Oxalate solutions (0.34M, 3%) of different pH (4.5, 5.0, 5.5, 7) were obtained by mixing appropriate ratios of potassium oxalate (62.79 g/L Potassium Oxalate Monohydrate in water, pH-7.0) and oxalic acid solution (30.69 g Oxalic Acid/L in water, pH-1.3). Lower concentrations were obtained by further dilution with water. A pyrophosphate solution, equimolar to a 3% Oxalate solution (75.65 g/L Sodium acid pyrophosphate, pH-adjusted with IN NaOH to pH7) was used as comparison. HAP powders were treated with the treatment solutions to investigate their stain removal potential. […] Supernatant was decanted and the pellet was washed twice by adding 25 mL of water, vortexing, centrifuging at 14,000 rpm for 15 mins, and decanting. The twice washed pellet was resuspended in 30 mL water by vortexing for 1 min, then vacuum-filtered (Millipore MF Membrane Filters 8.0 um, 47 mm) to collect the powder. […] Treatments were done in triplicate. A control disk using tea-stained HAP from the same batch treated with water was prepared as well. The color of the laminated samples was measured using a color-calibrated, white-balanced digital camera and RGB values were acquired. […] The light system was equipped with Dedo lights (model number DLH2) equipped with 150 watt, 24V bulbs model number (Xenophot model number HL X64640), positioned about 30 cm apart (measured from the center of the external circular surface of one of the glass lens through which the light exits to the other) and aimed at a 45 degree angle such that the light paths. […] Stain removal was determined as change in L (brightness) vs. untreated stained HAP, calculated as ΔL=(L for treated HAP-L for the untreated stained HAP). […]

The mark [5] stands for this setting: 0.250 % Active (equimolar to Oxalate Solution).
Setting [6] is: 1.250 % Active (equimolar to Oxalate Solution).
Setting [7] is: 2.5200 % Active (equimolar to Oxalate Solution).
[8] abbreviates: 7.56.00 % Active (equimolar to Oxalate Solution).

The structures appear in SMILES notation.

On to `O=C(O)CC(O)(CC(=O)O)C(=O)O` [1% Citric Acid, citric acid], for which the “Slurry pH” value in series [1] is 2.19. In addition, in series [2], the “Δ SMH (change in surface microhardness)” value is recorded as −175.68.
As to `O=P([O-])(O)OP(=O)([O-])O.[Na+].[Na+]` [Pyrophosphate Solution, Sodium acid pyrophosphate], the “Tea Stain (ΔL)” value in series [3] (setting [5]) turned out to be 5.16; in series [3] (setting [6]), 5.97; in series [3] (setting [7]) it was 7.88; in series [3] (setting [8]), 9.85. Moreover, the “Tea Stain + FeCl3 (ΔL)” value is listed as −0.97 in series [4] (setting [5]), 0.02 in series [4] (setting [6]), 0.77 in series [4] (setting [7]) and 2.88 in series [4] (setting [8]).
